The target of assay [1] is T1, purified human topoisomerase II alpha (Homo sapiens, UniProt P11388).
T1 construct: screened in an ATPase assay using purified full length tagged human topoisomerase II alpha; made in house; host or cells: Sf21 insect cells, baculovirus (pFastBac1)
Nature of the assay: DNA decatenation assay with purified enzyme (kDNA). As to conditions: catenated kDNA, read-out: mean IC50, inhibition of DNA decatenation. The class given is biochemical. How it is done: Reagents for the assay were purchased from TopoGEN (catalog number 1001–1, TopoGEN, Inc., Port Orange, FL). Topoisomerase II was extracted according to the manufacturer's instructions from nuclei of HL-60 cells (ATCC; American Type Culture Collection, Manassas, Virginia, USA) and contained both isoforms as assessed by Western blotting. Calculation of specific topoisomerase II decatenation activity was based on complete decatenation of a given amount of catenated input DNA (100 ng kDNA) by a defined amount of nuclear extract containing the alpha and beta isoforms or of a defined amount of purified enzyme in a particular amount of time. The topoisomerase II activity from nuclei decatenated 0.07 ng catenated kDNA · min^-1 · ng^-1 extract. Purified topoisomerase II alpha (see above) decatenated 0.13 ng catenated kDNA · min^-1 · ng^-1. Vehicle (DMSO) or drug substance at concentrations to yield the desired end concentrations were added and samples were preincubated for 5 minutes at 37°C and 400 rpm in an Eppendorf thermomixer. Reactions were started by adding ATP (to 450 μM final concentration) to each sample and incubation was continued for 20 minutes. […] Gels were analyzed under a UV transilluminator and decatenated kDNA products were quantified using AlphaEaseFC (FluorChem 8900) image analysis software version 3.2.3 (Alpha Innotech, San Leandro, CA).

Assay [2] concerns the target HER-1 (Homo sapiens, UniProt P00533). Nature of the assay: Radiometric filter binding kinase assay. The assay is classed as biochemical. The source says:
(§1) Based on homology structural models of the target, a purine scaffold was designed interactively using the Macromodel modeling software. The designed purine scaffold was subsequently used as a substructure query to search the Novartis compound collection. Around 50 molecules were retrieved in this manner and screened in an ATPase assay using purified full length tagged human topoisomerase II alpha. […] Subsequently, we carried out kinetic analysis with QAP 1 in order to corroborate the mode of action. […] The data were analyzed by non-linear regression analysis using the equations corresponding to competitive, uncompetitive, and mixed inhibition (see Methods) and a statistical analysis (F-test; p ≤ 0.05) was carried out to identify the best model. […] A linearized representation (Eady-Hofstee) of one of these experiments is depicted in Figure 1D. To confirm the mode of action of QAP 1, inhibition studies were also carried out in the presence of different concentration of the inhibitor at different ATP concentrations and the IC50 values were determined. […] Next, QAP 1 was tested against a panel of kinases in a radiometric assay. With the exception of subtle inhibition of the Ret and c-Src tyrosine kinases no effect of the compound was observed on other kinases in the panel, even at the highest concentration tested (Table 1). Thus, QAP 1 is a relatively potent inhibitor of topoisomerase II ATPase function with fairly good selectivity over various serine/threonine/tyrosine protein kinases. To test if QAP 1 inhibited topoisomerase II DNA strand passage activity, nuclear extracts of HL-60 leukemic cells were incubated with catenated kDNA in the presence of increasing concentrations of QAP 1.

Assay [3] addresses Jak2 (Homo sapiens, UniProt O60674). Nature of the assay: Radiometric filter binding kinase assay. The assay is classed as biochemical.
Source text: as §1

In assay [4] the target is c-Src (Homo sapiens, UniProt P12931). Nature of the assay: Radiometric filter binding kinase assay. The class given is biochemical. As to conditions: mean of two independent experiments ± SD.
Source text: as §1

Assay [5] concerns the target topoisomerase II alpha (Homo sapiens, UniProt P11388). Nature of the assay: Affinity precipitation with biotinylated purine analogue 2 from HL-60 nuclear extracts. The assay is classed as binding. Further details: endogenous in cells; host or cells: HL-60 nuclear extract. Conditions: 1 μM biotinylated analogue 2; competitor in excess (10 μM), QAP 1 also at equimolar concentration. How it is done: Topoisomerase II α and β were affinity precipitated with biotinylated inhibitor as follows. Exponentially growing HL-60 cells were collected on ice and incubated with hypotonic buffer (10 mM HEPES pH 7.5, 1.5 mM MgCl2, 10 mM KCl, 0.5 mM DTT, 0.5 mM PMSF, 1× protease inhibitor cocktail (Complete Mini, Roche Diagnostics GmbH)) for 15 minutes, then 0.6% v/v NP-40 was added and cells were disrupted using a Dounce homogenizer. Lysates were transferred to 1.5 ml Protein LoBind Eppendorf tubes and nuclei were collected after centrifugation at 8000 rpm for 10 minutes and washed twice with hypotonic buffer. To extract and release chromatin associated topoisomerase II nuclei were incubated for 30 minutes in DNAse buffer (20 mM Tris HCl pH 7.5, 5 mM MgCl2, 1 mM CaCl2, 25 mM NaCl, 0.5 mM EDTA, 1% NP-40, 1 mM DTT, 1 × protease inhibitor cocktail, 0.1 mM PMSF) containing 40 U DNAse I (Roche Diagnostics GmbH) followed by addition of twice concentrated nuclear extraction buffer (20 mM HEPES pH 7.5, 3 mM MgCl2, 20 mM KCl, 50 mM β-glycerophosphate, 840 mM NaCl, 1 mM EDTA, 50 mM PNPP, 1 mM DTT, 1 mM PMSF) and rotation for 1 h in the coldroom. The soluble fraction was obtained following centrifugation at 13000 rpm for 15 minutes. 25 μg nuclear extract were used for the affinity precipitation. The salt concentration was adjusted to 150 mM with nuclear extraction buffer (without NaCl) and the sample volume was toped off to 200 μl with precipitation buffer (50 mM HEPES pH 7.4, 150 mM NaCl, 25 mM β-glycerophosphate, 25 mM NaF, 5 mM EGTA, 1 mM EDTA, 15 mM PPI, 1 mM PMSF). Compounds were preincubated for 30 minutes prior addition of biotinylated purine analogue 2 for 2 h. Streptavidin agarose beads (Novagen, 69203) were washed twice with PBS, blocked for 30 minutes with PBS containing 1% BSA, washed twice with PBS and finally with precipitation buffer. 40 μl equilibrated streptavidin agarose beads were added to the sample and incubation was continued for 1 h. Beads were pelleted by centrifugation at 7000 rpm for 5 minutes and washed thrice with precipitation buffer. During the last wash the beads were transferred to a new tube and the bound fraction was released by boiling for 5 minutes in Laemmli sample buffer. Topoisomerase II α and β were detected by Western blot as described below.

Results on one molecule are retold here after PMC2628638, “Catalytic inhibition of topoisomerase II by a novel rationally designed ATP-competitive purine analogue” (BMC Chemical Biology, 2009).

Molecules are shown by their SMILES. A value given as a limit tells only on which side of the number the result lay.

A word on the IC50: it is the concentration that inhibits the measured activity by half.

T1 sequence (P11388 whole entry): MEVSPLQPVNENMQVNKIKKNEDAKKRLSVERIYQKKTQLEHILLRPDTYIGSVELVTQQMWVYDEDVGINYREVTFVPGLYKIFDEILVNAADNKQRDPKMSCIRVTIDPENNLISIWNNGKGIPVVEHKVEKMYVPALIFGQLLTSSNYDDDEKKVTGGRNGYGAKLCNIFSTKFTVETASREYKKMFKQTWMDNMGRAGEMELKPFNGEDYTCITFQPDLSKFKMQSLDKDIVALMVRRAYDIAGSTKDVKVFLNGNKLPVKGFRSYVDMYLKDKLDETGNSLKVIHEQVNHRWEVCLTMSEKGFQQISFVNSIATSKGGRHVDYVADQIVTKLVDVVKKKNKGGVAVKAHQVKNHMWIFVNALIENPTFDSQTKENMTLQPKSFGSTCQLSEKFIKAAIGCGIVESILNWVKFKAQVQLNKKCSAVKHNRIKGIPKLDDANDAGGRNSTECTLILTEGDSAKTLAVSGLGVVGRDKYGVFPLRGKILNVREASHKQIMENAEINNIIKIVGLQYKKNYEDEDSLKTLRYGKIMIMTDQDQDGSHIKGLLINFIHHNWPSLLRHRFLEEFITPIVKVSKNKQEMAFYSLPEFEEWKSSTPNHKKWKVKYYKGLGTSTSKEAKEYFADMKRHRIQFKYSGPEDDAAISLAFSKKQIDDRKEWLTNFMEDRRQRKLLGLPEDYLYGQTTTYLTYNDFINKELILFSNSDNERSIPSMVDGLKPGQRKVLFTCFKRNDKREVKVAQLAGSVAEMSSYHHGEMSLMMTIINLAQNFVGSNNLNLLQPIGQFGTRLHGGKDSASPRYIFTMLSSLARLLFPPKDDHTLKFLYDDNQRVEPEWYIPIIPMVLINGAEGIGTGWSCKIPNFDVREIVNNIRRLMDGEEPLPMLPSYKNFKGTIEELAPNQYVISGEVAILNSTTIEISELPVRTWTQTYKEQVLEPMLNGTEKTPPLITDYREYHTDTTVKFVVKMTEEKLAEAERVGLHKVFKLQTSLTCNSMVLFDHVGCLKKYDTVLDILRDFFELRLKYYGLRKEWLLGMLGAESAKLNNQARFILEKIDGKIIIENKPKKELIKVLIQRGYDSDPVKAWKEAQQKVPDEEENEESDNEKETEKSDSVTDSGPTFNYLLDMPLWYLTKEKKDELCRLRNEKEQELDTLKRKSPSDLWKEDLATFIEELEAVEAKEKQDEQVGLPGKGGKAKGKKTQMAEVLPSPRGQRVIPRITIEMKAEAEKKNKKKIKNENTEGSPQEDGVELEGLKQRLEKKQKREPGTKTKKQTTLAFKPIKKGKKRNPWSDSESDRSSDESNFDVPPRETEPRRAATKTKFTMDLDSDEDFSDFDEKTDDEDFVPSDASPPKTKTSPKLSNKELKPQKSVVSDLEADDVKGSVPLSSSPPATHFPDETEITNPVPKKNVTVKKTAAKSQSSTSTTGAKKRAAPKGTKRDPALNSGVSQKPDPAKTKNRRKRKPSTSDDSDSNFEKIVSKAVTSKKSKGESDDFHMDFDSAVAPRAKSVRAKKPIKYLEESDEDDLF
Chain of topoisomerase II alpha (P11388 whole entry): as above
Chain of Jak2 (O60674 whole entry, species assumed): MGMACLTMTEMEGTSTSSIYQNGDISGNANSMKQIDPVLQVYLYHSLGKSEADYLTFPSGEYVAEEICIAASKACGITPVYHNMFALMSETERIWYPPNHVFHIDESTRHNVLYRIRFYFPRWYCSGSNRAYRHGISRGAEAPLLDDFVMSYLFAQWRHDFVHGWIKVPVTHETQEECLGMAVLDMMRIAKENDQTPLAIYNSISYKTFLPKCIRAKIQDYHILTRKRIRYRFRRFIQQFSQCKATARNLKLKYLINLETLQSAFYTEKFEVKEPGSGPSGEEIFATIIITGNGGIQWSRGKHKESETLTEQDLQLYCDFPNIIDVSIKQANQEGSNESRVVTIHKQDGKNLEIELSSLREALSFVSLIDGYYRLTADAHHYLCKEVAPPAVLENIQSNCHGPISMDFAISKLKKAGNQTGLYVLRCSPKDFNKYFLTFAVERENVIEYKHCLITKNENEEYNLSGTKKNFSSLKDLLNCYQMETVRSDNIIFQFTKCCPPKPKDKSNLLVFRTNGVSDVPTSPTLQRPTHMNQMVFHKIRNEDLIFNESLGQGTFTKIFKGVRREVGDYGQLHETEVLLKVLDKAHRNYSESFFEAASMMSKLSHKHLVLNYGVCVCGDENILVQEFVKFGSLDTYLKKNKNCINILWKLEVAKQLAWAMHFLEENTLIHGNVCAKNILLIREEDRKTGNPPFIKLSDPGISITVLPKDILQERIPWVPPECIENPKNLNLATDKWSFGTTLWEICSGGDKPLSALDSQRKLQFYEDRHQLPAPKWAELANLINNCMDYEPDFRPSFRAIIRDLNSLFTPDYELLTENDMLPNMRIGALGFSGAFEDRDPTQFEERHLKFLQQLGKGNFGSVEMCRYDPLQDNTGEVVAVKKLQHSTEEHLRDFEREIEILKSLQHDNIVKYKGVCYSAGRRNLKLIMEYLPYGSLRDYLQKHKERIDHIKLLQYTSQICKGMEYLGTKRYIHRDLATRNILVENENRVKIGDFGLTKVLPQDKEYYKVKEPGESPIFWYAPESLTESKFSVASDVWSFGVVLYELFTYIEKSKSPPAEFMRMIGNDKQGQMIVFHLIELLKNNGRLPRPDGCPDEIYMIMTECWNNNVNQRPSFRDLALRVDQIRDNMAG
Chain of c-Src (P12931 whole entry, species assumed): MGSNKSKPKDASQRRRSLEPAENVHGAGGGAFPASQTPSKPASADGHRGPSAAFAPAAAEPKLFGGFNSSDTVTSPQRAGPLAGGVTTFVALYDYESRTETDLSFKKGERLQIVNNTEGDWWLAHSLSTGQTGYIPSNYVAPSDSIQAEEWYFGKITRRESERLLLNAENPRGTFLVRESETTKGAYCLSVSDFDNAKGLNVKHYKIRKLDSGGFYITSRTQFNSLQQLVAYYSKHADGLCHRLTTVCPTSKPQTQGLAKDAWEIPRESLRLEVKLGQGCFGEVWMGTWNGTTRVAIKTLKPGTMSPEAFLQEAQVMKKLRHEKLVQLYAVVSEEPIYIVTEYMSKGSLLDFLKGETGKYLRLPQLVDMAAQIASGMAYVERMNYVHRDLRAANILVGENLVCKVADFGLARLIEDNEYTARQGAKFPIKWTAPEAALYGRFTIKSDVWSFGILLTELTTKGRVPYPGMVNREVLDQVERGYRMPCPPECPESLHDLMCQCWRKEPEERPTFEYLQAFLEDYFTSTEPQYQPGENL
Chain of HER-1 (P00533 25-1210, species assumed): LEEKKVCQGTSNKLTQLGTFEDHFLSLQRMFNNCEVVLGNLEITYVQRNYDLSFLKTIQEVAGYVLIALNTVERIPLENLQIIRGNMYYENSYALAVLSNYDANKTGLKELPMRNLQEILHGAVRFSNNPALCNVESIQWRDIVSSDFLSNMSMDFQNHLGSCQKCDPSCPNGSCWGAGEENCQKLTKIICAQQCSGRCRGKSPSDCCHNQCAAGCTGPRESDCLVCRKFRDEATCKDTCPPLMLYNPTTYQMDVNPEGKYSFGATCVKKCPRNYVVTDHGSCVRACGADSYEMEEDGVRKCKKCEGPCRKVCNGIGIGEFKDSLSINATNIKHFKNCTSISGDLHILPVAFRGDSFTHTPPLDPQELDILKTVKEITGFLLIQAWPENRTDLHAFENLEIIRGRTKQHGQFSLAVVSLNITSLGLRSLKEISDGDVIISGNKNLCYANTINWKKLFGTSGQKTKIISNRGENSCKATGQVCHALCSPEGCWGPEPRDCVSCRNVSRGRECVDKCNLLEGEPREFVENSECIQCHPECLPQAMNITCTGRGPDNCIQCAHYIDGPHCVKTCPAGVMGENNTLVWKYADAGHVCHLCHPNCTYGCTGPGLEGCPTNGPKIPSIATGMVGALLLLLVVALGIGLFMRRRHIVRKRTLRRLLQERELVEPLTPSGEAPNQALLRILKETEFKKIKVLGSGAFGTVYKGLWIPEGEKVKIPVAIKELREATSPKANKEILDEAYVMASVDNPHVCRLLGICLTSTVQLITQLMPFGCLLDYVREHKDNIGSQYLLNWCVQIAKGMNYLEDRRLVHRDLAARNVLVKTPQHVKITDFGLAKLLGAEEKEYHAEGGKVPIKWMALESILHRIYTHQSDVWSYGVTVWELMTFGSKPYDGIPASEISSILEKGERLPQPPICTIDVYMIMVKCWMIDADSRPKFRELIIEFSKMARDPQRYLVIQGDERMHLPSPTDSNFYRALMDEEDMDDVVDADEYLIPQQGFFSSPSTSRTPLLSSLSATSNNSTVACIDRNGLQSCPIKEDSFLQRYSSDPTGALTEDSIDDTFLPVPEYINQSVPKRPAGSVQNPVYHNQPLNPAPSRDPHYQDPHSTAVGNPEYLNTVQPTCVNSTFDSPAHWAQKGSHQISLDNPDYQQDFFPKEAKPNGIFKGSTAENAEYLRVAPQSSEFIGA

Regarding `CCc1nc2nc(Nc3ccc4nc(OCCN5CCOCC5)ccc4c3)nc(NC(C)(C)C)c2[nH]1` [QAP 1], the IC50 is 0.66 µM in assay [1], greater than 10 µM in assay [2], greater than 10 µM in assay [3] and 1.7 ± 0.5 µM in assay [4]. Also, the “competition of the interaction of biotinylated purine analogue 2 with topoisomerase II alpha” value in assay [5] is recorded as “abolished”.
